Each block holds one compound with its values, some of them ahead of it.
Legend:
[1] = target: T1, Recombinant human TYK2 catalytic domain (Homo sapiens, UniProt P29597); assay: TYK2 inhibition assay; assay type: biochemical; details: semi-quantitative score
T1 construct: Recombinant human TYK2 catalytic domain (amino acids 871-1187; catalog number 08-147); purchased Carna biosciences 08-147
T1 sequence (P29597 871-1187): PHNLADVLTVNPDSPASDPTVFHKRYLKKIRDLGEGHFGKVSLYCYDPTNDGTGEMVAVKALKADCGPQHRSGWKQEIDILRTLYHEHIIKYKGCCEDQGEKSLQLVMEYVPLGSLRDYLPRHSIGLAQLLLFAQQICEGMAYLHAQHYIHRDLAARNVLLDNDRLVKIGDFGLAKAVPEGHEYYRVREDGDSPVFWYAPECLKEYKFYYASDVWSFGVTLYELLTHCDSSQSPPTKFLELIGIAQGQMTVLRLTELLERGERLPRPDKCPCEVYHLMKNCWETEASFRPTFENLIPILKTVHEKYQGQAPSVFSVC
Protocol: Recombinant human TYK2 catalytic domain (amino acids 871-1187; catalog number 08-147) was purchased from Carna biosciences. 5 ng of TYK2 was incubated with 12.5 μg polyGT substrate (Sigma catalog number P0275) in kinase reaction buffer (25 mM Hepes pH 7.5, 100 mM NaCl, 0.2 mM Na3VO4, 0.1% NP-40, 0.1 μM non-radioactive ATP, 0.125 μCi 33P-gamma-ATP (GE Healthcare, catalog number AH9968) final concentrations) with or without 5 μL containing test compound or vehicle (DMSO, 1% final concentration), in a total volume of 25 μL, in a polypropylene 96-well plate (Greiner, V-bottom). After 90 min at 30° C., reactions were stopped by adding of 25 μL/well of 150 mM phosphoric acid. All of the terminated kinase reaction was transferred to prewashed (75 mM phosphoric acid) 96 well filter plates (Perkin Elmer catalog number 6005177) using a cell harvester (Perkin Elmer). Plates were washed 6 times with 300 μL per well of a 75 mM phosphoric acid solution and the bottom of the plates was sealed. 40 μL/well of Microscint-20 was added, the top of the plates was sealed and readout was performed using the Topcount (Perkin Elmer). Kinase activity was calculated by subtracting counts per minute (cpm) obtained in the presence of a positive control inhibitor (10 μM staurosporine) from cpm obtained in the presence of vehicle. The ability of a test compound to inhibit this activity was determined as: Percentage inhibition=((cpm determined for sample with test compound present−cpm determined for sample with positive control inhibitor) divided by (cpm determined in the presence of vehicle−cpm determined for sample with positive control inhibitor))*100%.
Dose dilution series were prepared for the compounds enabling the testing of dose-response effects in the TYK2 assay and the calculation of the IC50 for each compound. Each compound was routinely tested at concentration of 20 μM followed by a 1/3 serial dilution, 8 points (20 μM-6.67 μM-2.22 μM-740 nM-247 nM-82 nM-27 nM-9 nM) in a final concentration of 1% DMSO.

[2] = system: Collagen Induced Arthritis (CIA); assay: rat CIA model; assay type: in vivo
Protocol: Completed Freund's adjuvant (CFA) and incomplete Freund's adjuvant (IFA) were purchased from Difco. Bovine collagen type II (CII), lipopolysaccharide (LPS), and Enbrel were obtained from Chondrex (Isle d'Abeau, France); Sigma (P4252, L'Isle d'Abeau, France), Whyett (25 mg injectable syringe, France) Acros Organics (Palo Alto, Calif.), respectively. All other reagents used were of reagent grade and all solvents were of analytical grade.
Dark Agouti rats (male, 7-8 weeks old) were obtained from Harlan Laboratories (Maison-Alfort, France). Rats were kept on a 12 hours light/dark cycle (0700-1900). The temperature was maintained at 22° C., and food and water were provided ad libitum.
One day before the experiment, CII solution (2 mg/mL) was prepared with 0.05 M acetic acid and stored at 4° C. Just before the immunization, equal volumes of adjuvant (IFA) and CII were mixed by a homogenizer in a pre-cooled glass bottle in an ice water bath. Extra adjuvant and prolonged homogenization might be required if an emulsion is not formed. 0.2 mL of the emulsion was injected intradermally at the base of the tail of each rat on day 1, a second booster intradermal injection (CII solution at 2 mg/mL in CFA 0.1 mL saline) was performed on day 9. This immunization method was modified from published methods (Sims et al, 2004; Jou et al., 2005).
The therapeutic effects of the test compounds were tested in the rat CIA model. Rats were randomly divided into equal groups and each group contained 10 rats. All rats were immunized on day 1 and boosted on day 9. Therapeutic dosing lasted from day 16 to day 30. The negative control group was treated with vehicle (MC 0.5%) and the positive control group with Enbrel (10 mg/kg, 3× week, s.c.). A compound of interest was typically tested at 3 doses, e.g. 3, 10, 30 mg/kg, p.o.
Arthritis was scored according to the method of Khachigian 2006, Lin et al 2007 and Nishida et al. 2004). The swelling of each of the four paws was ranked with the arthritic score as follows: 0—no symptoms; 1—mild, but definite redness and swelling of one type of joint such as the ankle or wrist, or apparent redness and swelling limited to individual digits, regardless of the number of affected digits; 2—moderate redness and swelling of two or more types of joints; 3—severe redness and swelling of the entire paw including digits; 4—maximally inflamed limb with involvement of multiple joints (maximum cumulative clinical arthritis score 16 per animal) (Nishida et al., 2004).
The change in body weight (%) after onset of arthritis was calculated as follows: […]
X-ray photos were taken of the hind paws of each individual animal. […]

SMILES: O=C(Nc1nc2cccc(-c3ccc(OCc4ccccn4)cc3)n2n1)C1CC1 [Compound 37, N-(5-(4-(pyridin-2-ylmethoxy)phenyl)-[1,2,4]triazolo[1,5-a]pyridin-2-yl)cyclopropanecarboxamide]
IC50 [1]: 501 to 1000 nM
activity in the rat CIA study ([2]; 10 mg/kg): active

SMILES: O=C(Nc1nc2cccc(-c3ccc(NCc4ccccc4)cc3)n2n1)C1CC1 [Compound 72, N-(5-(4-(benzylamino)phenyl)-[1,2,4]triazolo[1,5-a]pyridin-2-yl)cyclopropanecarboxamide]
IC50 [1]: > 1000 nM

SMILES: N#Cc1ccc(COc2ccc(-c3cccc4nc(NC(=O)C5CC5)nn34)cc2)cn1 [Compound 176, N-(5-(4-((6-cyanopyridin-3-yl)methoxy)phenyl)-[1,2,4]triazolo[1,5-a]pyridin-2-yl)cyclopropanecarboxamide]
IC50 [1]: 1 to 100 nM
clinical score, rat CIA study ([2]; 3 mg/kg): Statistical significance
paw swelling, rat CIA study ([2]; 3 mg/kg): Statistical significance
efficacy in the rat CIA study, all readouts ([2]; rat, p.o., day 16 to day 30): efficacious in all readouts

More lines, main results first:

IC50 [1]: > 1000 nM
SMILES: CC(=O)Nc1ccc(COc2ccc(-c3cccc4nc(NC(=O)C5CC5)nn34)cc2)cc1 [Compound 92, N-(5-(4-(4-acetamidobenzyloxy)phenyl)-[1,2,4]triazolo[1,5-a]pyridin-2-yl)cyclopropanecarboxamide]

IC50 [1]: 101 to 500 nM
SMILES: O=C(Nc1nc2cccc(-c3ccc(OCc4cccnc4)cc3)n2n1)C1CC1 [Compound 36, N-(5-(4-(pyridin-3-ylmethoxy)phenyl)-[1,2,4]triazolo[1,5-a]pyridin-2-yl)cyclopropanecarboxamide]
activity in the rat CIA study ([2]; 30 mg/kg): active

Reference: patent US8242274B2, “Triazolopyridine kinase inhibitors useful for the treatment of degenerative and inflammatory diseases” (Galapagos NV, priority 2008, dated 2012)
